Measurements reported in ChEMBL document CHEMBL1151348, “Plant anticancer agents. X. Lignans from Juniperus phoenicea” (1980).
Values after ≈ are worked out from the molar mass of the structure shown.

System: KB
Assay: Cytotoxicity against human KB cells
Assay type: functional
Settings: read-out: ED50 (the source's name)

COc1cc([C@@H]2c3cc4c(c(OC)c3C[C@H]3COC(=O)[C@@H]32)OCO4)cc(OC)c1OC
EC50: 0.026 µg/mL (≈ 0.0607 µM)
